Measurements from paper PMC10041525, “New Dual Inhibitors of Bacterial Topoisomerases with Broad-Spectrum Antibacterial Activity and In Vivo Efficacy against Vancomycin-Intermediate Staphylococcus aureus” (Journal of Medicinal Chemistry, 2023).
Converted amounts (≈) assume the structure as drawn. Read-outs that look alike come from different tables or passages of the source.

Tests used:
[1] = system: 3 sensitive and 7 MDR A. baumannii clinical isolates; test: MIC, Hungarian clinical isolates and controls (384-well); type: cell-based; conditions: n=10
E. faecalis ATCC 29212 = system: E. faecalis ATCC 29212; parameters: method as in earlier work; conditions: QC range for E. faecalis ATCC 29212, ref CLSI; cited from earlier work
[2] = system: 100 A. baumannii strains (50 MDR, 50 non-MDR); test: MIC broth microdilution at IHMA Europe, panel of 100 strains; type: cell-based; conditions: Acinetobacter baumannii, read-out: MIC

C[C@@H](O)[C@H]1C(=O)N2C(C(=O)O)=C(SCCNC=N)C[C@H]12 [Imipenem, imipenem]
Cumulative % at MIC ([1]; MIC 0.5 µg/mL): 20%
Cumulative % at MIC ([1]; MIC 1 µg/mL): 30%
Cumulative % at MIC ([1]; MIC 64 µg/mL): 60%
Cumulative % at MIC ([1]; MIC 128 µg/mL): 80%
Cumulative % at MIC ([1]; MIC 256 µg/mL): 100%
MIC, CLSI Range (E. faecalis ATCC 29212): 0,5 - 2 µg/mL
MIC ([2]; A. baumannii IHMA 1769393, Lithuania 2018, Non-MDR): ≤ 0.25 µg/mL
MIC ([2]; A. baumannii IHMA 1769782, Israel 2018, MDR): > 16 µg/mL
MIC ([2]; A. baumannii IHMA 1769910, Israel 2018, Non-MDR): ≤ 0.25 µg/mL
MIC ([2]; A. baumannii IHMA 1790317, Czech Republic 2018, Non-MDR): ≤ 0.25 µg/mL
MIC ([2]; A. baumannii IHMA 1790916, Romania 2018, Non-MDR): ≤ 0.25 µg/mL
MIC ([2]; A. baumannii IHMA 1791877, Israel 2018, MDR): > 16 µg/mL
MIC ([2]; A. baumannii IHMA 1792961, Jordan 2018, MDR): > 16 µg/mL
MIC ([2]; A. baumannii IHMA 1795669, Tunisia 2018, Non-MDR): 0.5 µg/mL (≈ 1.67 µM)
MIC ([2]; A. baumannii IHMA 1814276, Lebanon 2018, MDR): > 16 µg/mL
MIC ([2]; A. baumannii IHMA 1815198, Kuwait 2018, MDR): > 16 µg/mL
MIC ([2]; A. baumannii IHMA 1815856, Israel 2018, MDR): > 16 µg/mL
MIC ([2]; A. baumannii IHMA 1821468, South Africa 2018, Non-MDR): 0.5 µg/mL (≈ 1.67 µM)
MIC ([2]; A. baumannii IHMA 1829500, Georgia 2018, Non-MDR): ≤ 0.25 µg/mL
MIC ([2]; A. baumannii IHMA 1830924, United Kingdom 2018, Non-MDR): ≤ 0.25 µg/mL
MIC ([2]; A. baumannii IHMA 1849819, Kuwait 2018, MDR): > 16 µg/mL
MIC ([2]; A. baumannii IHMA 1849829, Kuwait 2018, Non-MDR): ≤ 0.25 µg/mL
MIC ([2]; A. baumannii IHMA 1857118, Slovenia 2018, Non-MDR): ≤ 0.25 µg/mL
MIC ([2]; A. baumannii IHMA 1863631, France 2018, Non-MDR): ≤ 0.25 µg/mL
MIC ([2]; A. baumannii IHMA 1870054, United States 2018, Non-MDR): ≤ 0.25 µg/mL
MIC ([2]; A. baumannii IHMA 1884428, Italy 2018, Non-MDR): ≤ 0.25 µg/mL
MIC ([2]; A. baumannii IHMA 1884990, Germany 2018, Non-MDR): ≤ 0.25 µg/mL
MIC ([2]; A. baumannii IHMA 1900538, Turkey 2018, Non-MDR): ≤ 0.25 µg/mL
MIC ([2]; A. baumannii IHMA 1913773, Kenya 2018, Non-MDR): ≤ 0.25 µg/mL
MIC ([2]; A. baumannii IHMA 1926285, Qatar 2018, Non-MDR): ≤ 0.25 µg/mL
MIC ([2]; A. baumannii IHMA 1926288, Qatar 2018, MDR): > 16 µg/mL
MIC ([2]; A. baumannii IHMA 1957343, Portugal 2019, Non-MDR): ≤ 0.25 µg/mL
MIC ([2]; A. baumannii IHMA 1963732, Turkey 2019, MDR): > 16 µg/mL
MIC ([2]; A. baumannii IHMA 1967860, Spain 2019, Non-MDR): ≤ 0.25 µg/mL
MIC ([2]; A. baumannii IHMA 1971673, Latvia 2019, MDR): > 16 µg/mL
MIC ([2]; A. baumannii IHMA 1975075, Israel 2019, Non-MDR): ≤ 0.25 µg/mL
MIC ([2]; A. baumannii IHMA 1977077, Kuwait 2019, Non-MDR): ≤ 0.25 µg/mL
MIC ([2]; A. baumannii IHMA 1983151, Greece 2019, MDR): > 16 µg/mL
MIC ([2]; A. baumannii IHMA 1984665, Lithuania 2019, MDR): > 16 µg/mL
MIC ([2]; A. baumannii IHMA 1986678, Turkey 2019, Non-MDR): 0.5 µg/mL (≈ 1.67 µM)
MIC ([2]; A. baumannii IHMA 1986738, Turkey 2019, MDR): > 16 µg/mL
MIC ([2]; A. baumannii IHMA 1987162, Croatia 2019, MDR): > 16 µg/mL
MIC ([2]; A. baumannii IHMA 1993615, Turkey 2019, MDR): > 16 µg/mL
MIC ([2]; A. baumannii IHMA 1994284, Italy 2019, MDR): > 16 µg/mL
MIC ([2]; A. baumannii IHMA 1995161, Czech Republic 2019, Non-MDR): ≤ 0.25 µg/mL
MIC ([2]; A. baumannii IHMA 1997936, Morocco 2019, Non-MDR): ≤ 0.25 µg/mL
MIC ([2]; A. baumannii IHMA 1999178, Belgium 2019, Non-MDR): ≤ 0.25 µg/mL
MIC ([2]; A. baumannii IHMA 2003279, Turkey 2019, MDR): > 16 µg/mL
MIC ([2]; A. baumannii IHMA 2014367, Jordan 2019, Non-MDR): ≤ 0.25 µg/mL
MIC ([2]; A. baumannii IHMA 2014931, South Africa 2019, Non-MDR): ≤ 0.25 µg/mL
MIC ([2]; A. baumannii IHMA 2019315, Romania 2019, Non-MDR): ≤ 0.25 µg/mL
MIC ([2]; A. baumannii IHMA 2020360, Croatia 2019, MDR): > 16 µg/mL
MIC ([2]; A. baumannii IHMA 2031511, Greece 2019, Non-MDR): ≤ 0.25 µg/mL
MIC ([2]; A. baumannii IHMA 2031524, Greece 2019, MDR): > 16 µg/mL
MIC ([2]; A. baumannii IHMA 2034657, Tunisia 2019, Non-MDR): ≤ 0.25 µg/mL
MIC ([2]; A. baumannii IHMA 2035089, Serbia 2019, MDR): > 16 µg/mL
MIC ([2]; A. baumannii IHMA 2035134, Serbia 2019, Non-MDR): ≤ 0.25 µg/mL
MIC ([2]; A. baumannii IHMA 2038976, Hungary 2019, MDR): > 16 µg/mL
MIC ([2]; A. baumannii IHMA 2051503, Serbia 2019, MDR): > 16 µg/mL
MIC ([2]; A. baumannii IHMA 2058329, Slovenia 2019, Non-MDR): ≤ 0.25 µg/mL
MIC ([2]; A. baumannii IHMA 2065587, France 2019, Non-MDR): ≤ 0.25 µg/mL
MIC ([2]; A. baumannii IHMA 2099294, United Kingdom 2019, Non-MDR): ≤ 0.25 µg/mL
MIC ([2]; A. baumannii IHMA 2129256, Qatar 2019, Non-MDR): ≤ 0.25 µg/mL
MIC ([2]; A. baumannii IHMA 2154584, Israel 2020, MDR): 16 µg/mL (≈ 53.4 µM)
MIC ([2]; A. baumannii IHMA 2155340, Kenya 2020, MDR): 16 µg/mL (≈ 53.4 µM)
MIC ([2]; A. baumannii IHMA 2156634, Turkey 2020, MDR): > 16 µg/mL
MIC ([2]; A. baumannii IHMA 2156709, Turkey 2020, MDR): > 16 µg/mL
MIC ([2]; A. baumannii IHMA 2157614, Australia 2020, Non-MDR): ≤ 0.25 µg/mL
